The record followed here is patent US20240284907A1, “NOVEL DERIVATIVES OF NON-CODED AMINO ACIDS AND THEIR USE AS HERBICIDES” (FortePhest LTD., priority 2021, published 2024).

In the experiment the test system is Seeds of Lettuce R. (Super-Jericho). Kind of experiment: Filter paper bioassay with lettuce seeds: germination and early plant development, Minimal Effective Concentration (MEC). The experiment is classed as in vivo. The note with it: lettuce seeds on filter paper, 0 to 1 mmol/l, visually assessed after 6 days. The text has this:
Materials: Seeds of Lettuce R. (Super-Jericho, non-sterilized) were obtained from Ben Shahar Moshe Ltd., 99% purity. The test compounds listed in the Table 2 below were synthetized de novo or purchased from different vendors.
Filter Paper Bioassays with Lettuce seeds: The protocol is following Bertin et al. 2009 and Movellan et al. 2014 with specified modifications as described below.
Seeds were placed on Whatman no. 1 filter paper (Whatman, Middlesex, U.K.) in Petri dishes (10 seeds per plate) with 2.0 ml of aqueous solution of a test material in concentration ranged from 0 (control) to 1 mmol/l were placed in a tray tilted at 45[…]. The trays were kept in dark for 48 hours and then transferred to the growth chamber with 6/18 dark/light cycle for 4 days. Each experiment was performed at least with two repeats.
The development of plants' radicle and shoots were visually assessed 6 days after the beginning of the test to determine Minimal Effective Concentration (MEC) of a test material. In the context of the invention, MEC is defined as the lowest concentration level of a test material that caused deviation (absence of germination or malformation of radicle or shoots) from the plant's development in the Control group.
As to “2-[2-(4-chloro-2-fluorophenyl)-1,3-thiazol-4-yl]-2,2-difluoroacetic acid [compound 5734]”, the “Score (activity score of Minimal Effective Concentration, MEC)” value (“Score” for short) was “Moderate (0.1 mM)”. The same measure for `OCCc1ccsc1` [compound 589, 2-(thiophen-3-yl)ethan-1-ol]: “strong”.

As to `O=C(O)/C=C/c1ccnc(Br)c1[N+](=O)[O-]` [compound 6631, (2E)-3-(2-bromo-3-nitropyridin-4-yl)prop-2-enoic acid], the “Score” value is given as “Moderate (0.1 mM)”. The same measure for `Brc1cc(CNCc2ccnc(Br)c2)ccn1` [compound 686, bis[(2-bromopyridin-4-yl)methyl]amine]: “Weak (Higher than 0.1 mM)”. Regarding `O=C(NCC(F)(F)C(=O)O)c1cc(Cl)sc1Cl` [compound 5605, 3-[(2,5-dichlorothiophen-3-yl)formamido]-2,2-difluoropropanoic acid], the “Score” value is given as “Weak (Higher than 0.1 mM)”. Next, “6-bromopyridine-2-carbonitrile [compound 6670]”: “Weak (Higher than 0.1 mM)”. Next, “2,2-difluoro-2-{2-[3-fluoro-5-(trifluoromethyl)pyridin-2-yl]-1,3-thiazol-4-yl}acetic acid [compound 5736]”: “Moderate (0.1 mM)”; “sodium 2-(2-chloro-1,3-thiazol-5-yl)-2,2-difluoroacetate [compound 5721]”: “Moderate (0.1 mM)”. As for `O=C(O)c1ccc2ccnc(Cl)c2c1` [compound 6627, 1-chloroisoquinoline-7-carboxylic acid], the “Score” value is on record as “Moderate (0.1 mM)”. Next, “[2-(2,5-dichlorothiophen-3-yl)ethyl]hydrazine [compound 5705]”: “Moderate (0.1 mM)”; `O=C(Nc1ccnc(Br)c1)c1ccnc(Br)c1` [compound 6607, 2-bromo-N-(2-bromopyridin-4-yl)pyridine-4-carboxamide]: “Strong (0.01 mM)”. The same measure for “[2,5-bis(trifluoromethyl)-1,3-thiazol-4-yl](difluoro)acetic acid [compound 5744]”: “Moderate (0.1 mM)”; for `O=C(O)/C=C/c1ccnc(Br)c1` [compound 6606, (2E)-3-(2-bromopyridin-4-yl)prop-2-enoic acid]: “Weak (Higher than 0.1 mM)”; for `CC(=O)Nc1nc(Cl)sc1Cl` [compound 5618, N-(2,5-dichloro-1,3-thiazol-4-yl)acetamide]: “Moderate (0.1 mM)”. Regarding “2-carbamimidamido-N-[2-(2,5-dichlorothiophen-3-yl)ethyl]acetamide [compound 5726]”, the “Score” value is “Moderate (0.1 mM)”. “2-{[(2,5-dichlorothiophen-3-yl)methyl]amino}acetic acid [compound 5615]”: the “Score” value was “Weak (Higher than 0.1 mM)”. As to `O=C(NCC(F)(F)C(=O)O)c1ccnc(Br)c1` [compound 6618, 3-[(2-bromopyridin-4-yl)formamido]-2,2-difluoropropanoic acid], the “Score” value is “Strong (0.01 mM)”. Next, “2,2-difluoro-2-[4-(trifluoromethyl)pyrimidin-2-yl]acetic acid [compound 6652]”: “Moderate (0.1 mM)”. The same measure for `NNC(=O)Cc1csc(Cl)n1` [compound 5704, 2-(2-chloro-1,3-thiazol-4-yl)acetohydrazide]: “Moderate (0.1 mM)”; for `CC(=O)C1CN(CCc2cc(Cl)sc2Cl)CCC1=O` (stereo not drawn) [compound 5743, 3-acetyl-1-[2-(2,5-dichlorothiophen-3-yl)ethyl]piperidin-4-one]: “Moderate (0.1 mM)”; for `Nc1nc(C(F)(F)c2ccccc2)cs1` [compound 5697, 4-[difluoro(phenyl)methyl]-1,3-thiazol-2-amine]: “Strong (0.01 mM)”.

Turning to `O=C(O)Cc1ccc(Oc2ccncc2)cc1` [compound 6615, 2-[4-(pyridin-4-yloxy)phenyl]acetic acid], the “Score” value was “Weak (Higher than 0.1 mM)”. Next, “(2E)-3-(2-bromo-strong-nitropyridin-4-yl)prop-2-enoic acid [compound 6608]”: “Moderate (0.1 mM)”; `O=C(Cl)c1nc(Cl)sc1Cl` [compound 5613, 2,5-dichloro-1,3-thiazole-4-carbonylchloride]: “Weak (Higher than 0.1 mM)”. The same measure for `CCOC(=O)C(Br)c1nc(Br)sc1C` (stereo not drawn) [compound 5662, ethyl 2-bromo-2-(2-bromo-5-methyl-1,3-thiazol-4-yl)acetate]: “Moderate (0.1 mM)”. As to `NC(=O)CC(N)c1ccnc(Br)c1` (stereo not drawn) [compound 6616, 3-amino-3-(2-bromopyridin-4-yl)propanamide], the “Score” value is recorded as “Weak (Higher than 0.1 mM)”.

Take “(2,6-dibromopyridin-4-yl)-2,2-difluoroacetic acid [compound 6632]”: the “Score” value is “Weak (Higher than 0.1 mM)”. In the case of `O=C(O)Cc1csc(-c2ncc(Cl)cc2F)n1` [compound 5716, 2-[2-(5-chloro-3-fluoropyridin-2-yl)-1,3-thiazol-4-yl]acetic acid], the “Score” value is “Moderate (0.1 mM)”.

Consider `Clc1cc(CCNCc2ccccc2)c(Cl)s1` [compound 5694, benzyl[2-(2,5-dichlorothiophen-3-yl)ethyl]amine], for which the “Score” value was “Moderate (0.1 mM)”. For “N-[2-(2,5-dichlorothiophen-3-yl)ethyl]-N′-(2-hydroxypropyl)guanidine [compound 5727]”, the “Score” value is given as “Moderate (0.1 mM)”. Take `O=C(O)C(=O)c1ccc(Br)nc1` [compound 6609, 2-(6-bromopyridin-3-yl)-2-oxoacetic acid]: the “Score” value is given as “Weak (Higher than 0.1 mM)”. For the molecule `O=C(O)C(F)(F)c1ccc(C(F)(F)F)c(Br)n1` [compound 6682, [6-bromo-5-(trifluoromethyl)pyridin-2-yl](difluoro)acetic acid], the “Score” value is “Strong (0.01 mM)”. Regarding `O=C(O)C(=O)Cc1ccnc(Br)c1` [compound 6611, 3-(2-bromopyridin-4-yl)-2-oxopropanoic acid], the “Score” value is “Weak (Higher than 0.1 mM)”. Consider “2-(3-chloro-1,2-thiazol-4-yl)-2,2-difluoroacetic acid [compound 5773]”, for which the “Score” value was “Moderate (0.1 mM)”. Regarding `NCc1cc(Cl)sc1Cl` [compound 587, 1-(2,5-dichlorothiophen-3-yl)methanamine], the “Score” value is given as “weak”.

As for `CCOC(=O)C(NC(C)=O)C(F)(F)c1nnc(CCl)s1` (stereo not drawn) [compound 598, ethyl3-[5-(chloromethyl)-1,3,4-thiadiazol-2-yl]-2-acetamido-3,3-difluoropropanoate], the “Score” value is on record as “Weak (Higher than 0.1 mM)”. The same measure for “2-bromopyridine-4-carboxamide [compound 6600]”: “Weak (Higher than 0.1 mM)”; for `O=C(O)CCN1CCN(Cc2cc(Cl)sc2Cl)CC1` [compound 5626, 3-{4-[(2,5-dichlorothiophen-3-yl)methyl]piperazin-1-yl}propanoic acid]: “Weak (Higher than 0.1 mM)”; for `O=C(Cc1ccccc1)NCCc1cc(Cl)sc1Cl` [compound 5708, N-[2-(2,5-dichlorothiophen-3-yl)ethyl]-2-phenylacetamide]: “Moderate (0.1 mM)”. Take `O=C(O)CCC(F)(F)c1cc(Cl)sc1Cl` [compound 5632, 4-(2,5-dichlorothiophen-3-yl)-4,4-difluorobutanoic acid]: the “Score” value is recorded as “Moderate (0.1 mM)”. For `O=C(O)C(F)(F)c1nc(F)c(F)cc1F` [compound 6660, difluoro(3,5,6-trifluoropyridin-2-yl)acetic acid], the “Score” value is listed as “Moderate (0.1 mM)”. Regarding `NCCCc1ccnc(Br)c1` [compound 6649, 3-(2-bromopyridin-4-yl)propan-1-amine], the “Score” value is given as “Moderate (0.1 mM)”.

Regarding “2-[2-(2,5-dichlorothiophen-3-yl)ethyl]-1,4,5,6-tetrahydropyrimidin-5-ol [compound 5777]”, the “Score” value is reported as “Weak (Higher than 0.1 mM)”. Next, `N=C(NCCc1cc(Cl)sc1Cl)Nc1ccc(O)cc1` [compound 5766, N-[2-(2,5-dichlorothiophen-3-yl)ethyl]-N′-(4-hydroxyphenyl)guanidine]: “Moderate (0.1 mM)”; “N-{2-[3-(2,5-dichlorothiophen-3-yl)propoxy]phenyl}guanidine [compound 5732]”: “Moderate (0.1 mM)”.
